Laboratory results: patent EP3331365B1, “AGENT FOR FIGHTING FISH PARASITES” (Pharmaq AS, priority 2015, dated 2017)

What was measured:
Type in all cases: in vivo
Lepeophtheirus salmonis = test: Lesa assay: bioassay on salmon lice, 1 hour exposure in seawater; conditions: monitored until 96 hours post exposure, 8-10 °C
Procedure: The stock was then diluted in saltwater to the appropriate concentration.
Control formulations were also prepared comprising only solvent (acetone) and solubilizer (Kolliphor EL) in the same ratio as the test formulation. A salt water control was also used.
Bioassay experiments were then conducted on copepodites and pre-adult/adult salmon lice (Lepeophtheirus salmonis).
After 1 hour exposure, the lice were transferred to modified 6 well plates and washed twice in saltwater. The plates were then incubated and the numbers of dead and surviving lice were monitored until 96 hours post exposure. The experimental temperature was maintained at 8-10 °C.

[1] = system: tilapia (Oreochromis niloticus); test: Toxicity to fish, intraperitoneal injection
Procedure: . Tilapia of mean weight of 158 grams reared in freshwater at 29°C were distributed in three groups of 10 fish. Each group was injected with 0.05 ml of the relevant formulation, or PBS control.

sea lice (L. salmonis) = test: Bath treatment of sea lice infested Atlantic salmon: count of attached female sea lice; conditions: 2ppm for 60 minutes by bath; 12°C seawater; counted three days after treatment
Procedure: Diafenthiuron was tested for use in treating fish parasites.
Atlantic salmon were acclimatized to 12°C seawater.
Three days after treatment the number of attached female sea lice was counted. The number of adult female sea lice was reduced by 56% in the treated group.

SMILES: CC(C)c1cc(Oc2ccccc2)cc(C(C)C)c1NC(=S)NC(C)(C)C [Diafenthiuron, 1-tert-butyl-3-(2,6-diisopropyl-4-phenoxyphenyl)thiourea]
- % dead (Lepeophtheirus salmonis; Copepodites, 0.5 ppm): 77%
- Dead/total (Lepeophtheirus salmonis; Copepodites, 0.5 ppm): 10/13
- % dead (Lepeophtheirus salmonis; Copepodites, 2.0 ppm): 100%
- Dead/total (Lepeophtheirus salmonis; Copepodites, 2.0 ppm): 20/20
- % dead (Lepeophtheirus salmonis; Copepodites, 20 ppb): 48%
- Dead/total (Lepeophtheirus salmonis; Copepodites, 20 ppb): 11/23
- % dead (Lepeophtheirus salmonis; Pre-adult/adult, 2.0 ppm): 100%
- Dead/total (Lepeophtheirus salmonis; Pre-adult/adult, 2.0 ppm): 5/5
- % mortality ([1]; 0.05 ml of 25 mg/ml in PEG400 (85%)/DMSO (15%), intraperitoneal injection, 5 days, same mortality in group without diafenthiuron): 10%
- No. of fish healthy after 5 days ([1]; 0.05 ml of 25 mg/ml in PEG400 (85%)/DMSO (15%), intraperitoneal injection, freshwater 29°C, 10 fish): 9/10
- treated fish alive and healthy ([1]; five days after treatment, 25 mg/ml in PEG400/DMSO, 0.05 ml intraperitoneal injection): 90%
- reduction of the number of adult female sea lice (sea lice (L. salmonis)): 56%
